Here are results for one compound from paper PMC8997995, “Amphiphilic Cell-Penetrating Peptides Containing Natural and Unnatural Amino Acids as Drug Delivery Agents” (Cells, 2022).

Molecules are shown by their SMILES. Read-outs that look alike come from different tables or passages of the source. Non-standard residues stand in square brackets, D forms with d. Residues, ends and D or L forms follow the SMILES beside them. Dip = N[C@H](C(=O)O)C(c1ccccc1)c1ccccc1

The test system of one data set is SK-OV-3 cells. In kind it is cell-based, human. To be noted: MTS, n = 3. On the procedure: SK-OV-3, CCRF-CEM, HEK-293, MDA-MB-468, LLC-PK1, and MES-SA were used to determine the cytotoxicity of the synthesized linear and cyclic peptides. About 5000, 10,000, and 50,000 cells were seeded for SK-OV-3, HEK-293, and CCRF-CEM cells, respectively, in 0.1 mL of medium per well of 96-well plates. An appropriate medium was used for each cell line (SK-OV-3: McCoy’s 5A with L-glutamine containing fetal bovine serum (FBS) (10%) and penicillin or streptomycin (1%); CCRF-CEM: RPMI-1640 medium with L-glutamine and sodium bicarbonate containing FBS (10%) and penicillin or streptomycin (1%); MDA-MB-468 cells: DMEM/F12 (1:1) (1×) with L-glutamine and 15 mM HEPES containing FBS (10%) and penicillin or streptomycin (1%); LLC-PK1 cells: Dulbecco’s Modified Eagle’s Medium with 4500 mg/L glucose, L-glutamine and sodium bicarbonate, without sodium pyruvate liquid containing FBS (10%) and penicillin or streptomycin (1%); MES-SA cells: consisting of half SK-OV-3 and half CCRF-CEM media; and HEK-293 cells: Minimum Essential Medium Eagle with Earle’s salts and sodium bicarbonate, without L-glutamine containing FBS (10%) and penicillin or streptomycin (1%)). Then, 20 µL of peptides containing 5% DMSO in water were added to each well.
Adhesive cells were detached with 0.05% trypsin/EDTA after 15 min. The suspended cells were seeded in the medium 24 h prior to the experiment according to the previously reported procedure. The medium was changed before adding the peptides for adherent cells. Each concentration 5, 10, 25, 50, and 166 µM (containing 0.8% DMSO) had triplicate wells to minimize possible errors. […] The cell viability was measured by utilizing Multi-Mode Microplate Reader (SpectraMax M5 model, Molecular Devices, San Jose, CA, USA) after adding 20 µL of the MTS reagent to each well and incubating for 3 additional hours. […] The protocol manager was selected “endpoint” on the spectrophotometer’s software (SoftMax Pro 7). The 96-well plates were inserted inside spectrophotometer, and the data were acquired. The percentage of cell viability was calculated using the following equation:(1) =(Average OD values of samples treated with the compound /Average OD values of no treatment samples )∗100

The test system of a further data set is MDA-MB-468 cells. Kind of data set: In vitro cytotoxicity (MTS) in MDA-MB-468 cells. In kind it is cell-based, human. The note with it: MDA-MB-468, 10 µM, 24 h and 72 h incubation. As for the experimental part:
(§1) SK-OV-3, CCRF-CEM, HEK-293, MDA-MB-468, LLC-PK1, and MES-SA were used to determine the cytotoxicity of the synthesized linear and cyclic peptides. About 5000, 10,000, and 50,000 cells were seeded for SK-OV-3, HEK-293, and CCRF-CEM cells, respectively, in 0.1 mL of medium per well of 96-well plates. […]
(§2) Adhesive cells were detached with 0.05% trypsin/EDTA after 15 min. […] The cell viability was measured by utilizing Multi-Mode Microplate Reader (SpectraMax M5 model, Molecular Devices, San Jose, CA, USA) after adding 20 µL of the MTS reagent to each well and incubating for 3 additional hours. […] The percentage of cell viability was calculated using the following equation:(1) =(Average OD values of samples treated with the compound /Average OD values of no treatment samples )∗100

Another data set deals with MDA-MB-231 cells. In words: Cellular uptake of F’-siRNA by flow cytometry in MDA-MB-231 cells. In kind it is cell-based, human. To be noted: MDA-MB-231, F’-siRNA 36 nM, n = 3.
Another data set relates to HEK-293 cells. Type of data set: cell-based, human. To be noted: HEK-293, 25 µM, 24 h incubation, MTS. On the procedure: as §1, §2
The nature of a further data set: Plasma stability study. In kind it is in vitro ADME. The note with it: 500 µM in 25% human plasma in water, 37 °C. As for the experimental part:
The metabolic stability of [DipR]5 was assessed in human plasma by using a high-resolution mass spectrometer (LC-QTOF-MS). To remove the background interference, the data were processed by using a narrower (±0.1 m/z) extracted ion chromatogram (EIC) window. Test compound (500 µM) was incubated in 25% human plasma in water at 37 °C. 50 µL aliquots were taken at different time points (0, 0.5, 1, 2, 3, and 13 h), and the plasma proteins were precipitated by the addition of cold ethanol (50 µL) and incubated for 5 min in ice and water. The samples were centrifuged at 7000 RPM for 5 min, and the supernatant (10 µL) was injected into LC-QTOF-MS (Impact II model, Bruker Daltonik, Bremen, Germany). The samples were analyzed on Waters Xterra MS C18 5 µm 2.10 mm × 50 mm column at a flow rate of 0.3 mL/min using a linear gradient of aqueous ACN in the presence of formic acid (0.1%, v/v) as ion pair reagent. The analytes were quantified by their peak areas of EIC. The percentage digestion of the test compound was calculated relative to the peak areas at 0 min.

The next data set is described as follows: Dynamic light scattering. In kind it is physicochemical. To be noted: DLS, 10 µM, 25 °C. On the procedure:
The samples were prepared in 10 µM concentration and were incubated for approximately 2 h after thawing from a freezer (0 to −18 °C). Samples were analyzed by dynamic light scattering (DLS) for particle sizes and the polydispersity index (PI). The data were acquired by using a Zetasizer Nano ZS (Malvern, Worcestershire, UK), which has a 0.3 nm to 10 µm particle size range and was equipped with a laser beam (λ = 633 nm; 4 mW) and a scattered light detector positioned at an angle of 173° (noninvasive backscatter) in order to unmask scattered light signals of low intensity originated by the smaller particles. The analytical model was based on protein analysis. The sensitivity of the device is reported to be at 0.1 mg/mL (lysozyme). The refractive index and absorption were set at 1.450 and 0.001 for the material. The refractive index, viscosity, and temperature were set at 1.33, 0.8872, and 25 °C for dispersant. Particle sizes and PI measurements were made in disposable cuvettes (ZEN0040) at 25 °C and variable runs per measurement.

Consider `N=C(N)NCCC[C@@H]1NC(=O)[C@H](C(c2ccccc2)c2ccccc2)NC(=O)[C@H](CCCNC(=N)N)NC(=O)[C@H](C(c2ccccc2)c2ccccc2)NC(=O)[C@H](CCCNC(=N)N)NC(=O)[C@H](C(c2ccccc2)c2ccccc2)NC(=O)[C@H](CCCNC(=N)N)NC(=O)[C@H](C(c2ccccc2)c2ccccc2)NC(=O)[C@H](CCCNC(=N)N)NC(=O)[C@H](C(c2ccccc2)c2ccccc2)NC1=O` [[DipR]5] (cyclo([Dip]R[Dip]R[Dip]R[Dip]R[Dip]R)), for which the “reduction of cell proliferation” value in the data set on SK-OV-3 cells (SK-OV-3, 10 µM, 72 h incubation) is 75%; in the data set on SK-OV-3 cells (SK-OV-3, 25 µM, 24 h incubation), 81%; in the data set on HEK-293 cells, 56%. The cytotoxicity result with MDA-MB-468 cells is on record as “no significant cytotoxicity”. Also, the “increase of cellular uptake of F’-siRNA vs siRNA alone” value in the data set on MDA-MB-231 cells (N/P ratio 10, 24 h) amounted to 30 fold; in the data set with MDA-MB-231 cells (N/P ratio 20, 24 h), 50 fold. For the same compound, the “stability in human plasma” value in “Plasma stability study” (0-13 h, LC-QTOF-MS) is “high stability”. Also, the metabolised at 1 h, 500 µM in the data set “Plasma stability study” (after 1 h, LC-QTOF-MS EIC peak area relative to 0 min, read-out: degradation in human plasma) is ~15%. The compound also returned a Z average size in “Dynamic light scattering” of 200.6 nm. In “Dynamic light scattering”, the “polydispersity index (PI)” value was determined as 0.359.
